Reference: patent US7371407B2, “Use of Emu Oil and its various fractions as a carrier for antifungal, antibacterial, and antiviral medications and preparations” (Ganeden Biotech, Inc., priority 1999, dated 2008)

Legend:
[1] = topically-administered without dermal-penetrants; cited from earlier work
four species of Candida = test: In vitro inhibition assay on potato-dextrose plates, yeast pathogens; format: cell-based; settings: positive control, 18 hr at 30° C.
Procedure: Each of the yeast pathogens and their ATCC accession numbers are illustrated in FIG. 5.
In the in vitro inhibition assay, potato-dextrose plates (DIFCO®, Detroit, Mich.) were prepared using standard procedures and were inoculated individually with a confluent bed about 1.7×10^6 of the four species of Candida. Inhibition by Bacillus coagulans was tested by placing on the plate about 1.5×10^6 colony forming units (CFU) in 10 μl of broth or buffer, plated directly in the center of the potato-dextrose plate with one test locus of about 8 mm in diameter per plate. A minimum of three tests were performed for each inhibition assay. The negative control consisted of a 10 μl volume of a sterile saline solution, whereas the positive control consisted of a 1 μl volume of Miconazole cream.
The plates were then incubated for approximately 18 hr at 30° C., at which time the zones of inhibition were measured. As designated herein, “excellent inhibition” means the zone was 10 mm or greater in diameter; and “good inhibition” means the zone was greater than 2 mm in diameter, but less than 10 mm in diameter.

Trichophyton species = test: In vitro inhibition assay on potato-dextrose plates, fungal pathogens; format: cell-based; settings: positive control, 18 hr at 30° C.
Procedure: In the assay, potato-dextrose plates (DIFCO®, Detroit, Mich.) were prepared using standard procedures and were inoculated individually with a confluent bed (about 1.7×10^6) of various species of the fungus Trichophyton. The tested fungal strains of Trichophyton species (available from the American Type Culture Collection (ATCC; Rockville, Md.)) and their ATCC accession numbers, as well as the results of in vitro inhibition by Bacillus coagulans are illustrated in FIG. 4.
Inhibition by Bacillus coagulans was ascertained by placing on the plate approximately 1.5×10^6 colony forming units (CFU) in 10 μl of broth or buffer, plated directly in the center of the potato-dextrose plate, with one test locus per plate. The size of each test locus was approximately 8 mm in diameter and a minimum of three tests were performed for each inhibition assay. The negative control consisted of a […] of sterile saline solution, whereas the positive control consisted of a […] 2% Miconazole (1-[2-(2,4-dichlorophenyl)-2-[(2,4-dichlorophenyl)methoxylmethyl-1,11-imidazole within an inert cream.
The plates were then incubated for approximately 18 hr at 30° C., at which time the zones of inhibition were measured. […]

[2] = test system: opportunistic bacterial pathogens; test: In vitro bacterial pathogen screen (DIFCO BACTROL Disk Set) on potato-dextrose plates; format: cell-based; settings: positive control, 18 hr at 30° C.
From the text: The ability of Bacillus coagulans to inhibit various opportunistic bacterial pathogens was quantitatively ascertained by use of an in vitro assay. This assay is part of a standardized bacterial pathogen screen (developed by the U.S. Food and Drug Administration(FDA)) and is commercially available on solid support disks (DIFCO® BACTROL® Disk Set). To perform the assay, potato-dextrose plates (DIFCO®) were initially prepared using standard procedures. The plates were then individually inoculated with each of the bacteria (approximately 1.5×10^6 CFU) to be tested, so as to form a confluent bacterial bed.
Inhibition by Bacillus coagulans was subsequently ascertained by placing approximately 1.5×10^6 CFU of Bacillus coagulans in 10 μl of broth or buffer, directly in the center of the potato-dextrose plate, with one test locus being approximately 8 mm in diameter per plate. A minimum of three test loci were used for each assay. The negative control consisted of a 10 μl volume of a sterile saline solution, whereas the positive control consisted of a 10 μl volume of glutaraldehyde. The plates were then incubated for approximately about 18 hr at 30° C., at which time the zones of inhibition were measured. […]

For `CC(C(=O)O)c1cccc(C(=O)c2ccccc2)c1` (stereo not shown) [Ketoprofen], the “adsorption through viable, keritinized dermal tissue” value [1] is listed as “very limited concentration, if at all”.

In the case of `Clc1ccc(COC(Cn2ccnc2)c2ccc(Cl)cc2Cl)c(Cl)c1` (stereo not shown) [Miconazole], the “zone of inhibition, diameter” value (four species of Candida; cream, average of three tests) is reported as “approximately 8.7 mm”, the inhibition class (four species of Candida) is reported as “good (“good inhibition” means the zone was greater than 2 mm in diameter, but less than 10 mm in diameter)” and the “zone of inhibition, diameter” value (Trichophyton species; 2% in inert cream, mean average of three tests) is reported as “approximately 8.5 mm”. The inhibition class (Trichophyton species) was “good (“good inhibition” means the zone was greater than 2 mm in diameter, but less than 10 mm in diameter)”.

For `O=CCCCC=O` [glutaraldehyde], the “zone of inhibition, diameter” value ([2]; 10 μl, average of three tests) was “approximately 16.2 mm” and the inhibition class [2] was “excellent (“excellent inhibition” means the zone was 10 mm or greater in diameter)”.
